Values belong to the compound of their own block, whether it stands above or below them. Calls of active or inactive are those of the source. The calls are words filed in the database; no cut-off is given here.
Assays:
[1] = Antifibrotic activity in rat renal mesangial cells assessed as inhibition of TGF-beta1-induced [3H]-proline incorporation into collagen at 30 uM treated 4 hrs before TGF-beta1 addition measured after 44 hrs by liquid scintillation counting; assay type: functional, cell-based
[2] = Antifibrotic activity in rat renal mesangial cells assessed as inhibition of TGF-beta1-induced [3H]-proline incorporation into collagen at 10 uM treated 4 hrs before TGF-beta1 addition measured after 44 hrs by liquid scintillation counting; assay type: functional, cell-based
Rattus norvegicus [3] = assay: Reduction of albuminuria in (mRen-2)27 rat streptozotocin-induced diabetic nephropathy model assessed as reduction of albumin level in urine at 400 mg/kg, po qd for 8 weeks administered 8 weeks post-streptozotocin treatment by radioimmunoassay; assay type: functional, organism-based; design: dose 400 mg/kg
[4] = Oral bioavailability in Sprague-Dawley rat at 20 mg/kg; assay type: ADME, organism-based; settings: in vivo
[5] = (§1) Tmax in Sprague-Dawley rat at 20 mg/kg, po; assay type: ADME, organism-based; design: dose 20 mg/kg, route oral; settings: Sprague-Dawley, in vivo
[6] = (§2) AUC (0 to infinity) in Sprague-Dawley rat at 20 mg/kg, po; assay type: ADME, organism-based, Plasma; design: dose 20 mg/kg, route oral, time infinity; settings: Sprague-Dawley, plasma
[7] = (§3) Cmax in Sprague-Dawley rat at 20 mg/kg, po; assay type: ADME, organism-based; design: dose 20 mg/kg, route oral; settings: Sprague-Dawley, in vivo
[8] = Drug level in Sprague-Dawley rat urine at 20 mg/kg, po; assay type: ADME, organism-based; design: dose 20 mg/kg, route oral; settings: read-out: Drug uptake
[9] = (§4) Apparent half life in Sprague-Dawley rat at 20 mg/kg, po; assay type: ADME, organism-based; design: dose 20 mg/kg, route oral; settings: Sprague-Dawley, in vivo
[10] = AUC (0 to infinity) in Sprague-Dawley rat at 5 mg/kg, iv; assay type: ADME, organism-based; design: time infinity, dose 5 mg/kg, route intravenous; settings: plasma
[11] = Volume of distribution at steady state in Sprague-Dawley rat at 5 mg/kg, iv; assay type: ADME, organism-based; design: dose 5 mg/kg, route intravenous; settings: in vivo, read-out: Vdss
[12] = Drug level in Sprague-Dawley rat urine at 5 mg/kg, iv; assay type: ADME, organism-based; design: dose 5 mg/kg, route intravenous; settings: read-out: Drug uptake
[13] = Plasma clearance in Sprague-Dawley rat at 5 mg/kg, iv; assay type: ADME, organism-based; design: dose 5 mg/kg, route intravenous
[14] = Apparent half life in Sprague-Dawley rat at 5 mg/kg, iv; assay type: ADME, organism-based; design: dose 5 mg/kg, route intravenous; settings: in vivo, read-out: t1/2(app) (converted)
Liver microsome = assay: Metabolic stability in human liver microsomes at 1 uM after 60 mins by LC/MS analysis in presence of NADPH; assay type: ADME; settings: 1 h
Rattus norvegicus [15] = assay: Hepatotoxicity in Sprague-Dawley rat assessed as effect on serum bilirubin level at 50 to 1000 mg/kg, po bid for 2 weeks; assay type: toxicity, organism-based; design: dose 50-1000 mg/kg, route oral; settings: in vivo, 336 h
Rattus norvegicus [16] = assay: Reduction of albuminuria in (mRen-2)27 rat streptozotocin-induced diabetic nephropathy model assessed as reduction of albumin level in urine at 200 mg/kg, po qd for 8 weeks administered 8 weeks post-streptozotocin treatment by radioimmunoassay; assay type: functional, organism-based; design: dose 200 mg/kg
Rattus norvegicus [17] = assay: Hepatotoxicity in Sprague-Dawley rat assessed as effect on serum ALT level at 50 to 1000 mg/kg, po bid for 2 weeks; assay type: toxicity, organism-based; design: dose 50-1000 mg/kg, route oral; settings: in vivo, 336 h
Rattus norvegicus [18] = assay: Renal toxicity in Sprague-Dawley rat assessed as effect on serum urate level at 50 to 1000 mg/kg, po bid for 2 weeks; assay type: organism-based; design: dose 50-1000 mg/kg, route oral; settings: in vivo, 336 h
Rattus norvegicus [19] = assay: Renal toxicity in Sprague-Dawley rat assessed as effect on serum creatinine level at 50 to 1000 mg/kg, po bid for 2 weeks; assay type: organism-based; design: dose 50-1000 mg/kg, route oral; settings: in vivo, 336 h
Rattus norvegicus [20] = assay: as §1; assay type: ADME, organism-based; design: dose 20 mg/kg, route oral; settings: in vivo
Rattus norvegicus [21] = assay: as §2; assay type: ADME, organism-based, Plasma; design: dose 20 mg/kg, route oral, time infinity; settings: in vivo
Rattus norvegicus [22] = assay: as §3; assay type: ADME, organism-based; design: dose 20 mg/kg, route oral; settings: in vivo
Rattus norvegicus [23] = assay: as §4; assay type: ADME, organism-based; design: dose 20 mg/kg, route oral; settings: in vivo

Structure (SMILES): C#CCOc1cc(/C=C/C(=O)Nc2ccccc2C(=O)O)ccc1OC
inhibition [1]: 55%
inhibition [2]: 20%

Structure (SMILES): COc1ccc(/C=C/C(=O)Nc2ccccc2C(=O)O)cc1OC(F)(F)F
inhibition [1]: 100%
inhibition [2]: 92%

Structure (SMILES): COc1cc(/C=C/C(=O)Nc2ccccc2C(=O)O)cc(OC)c1OC(F)F
inhibition [1]: 80%
inhibition [2]: 24%

Structure (SMILES): C#CCOc1cc(/C=C/C(=O)Nc2ccccc2C(=O)O)ccc1OC(F)F
inhibition [1]: 100%
inhibition [2]: 73%

Structure (SMILES): Nc1ccccc1NC(=O)/C=C/c1ccc(OC(F)F)c(OC(F)F)c1
inhibition [1]: 79%
inhibition [2]: 57%

Structure (SMILES): O=C(/C=C/c1ccc(OC(F)F)c(OC(F)F)c1)Nc1ccc(Br)cc1C(=O)O
inhibition [2]: 100%

Structure (SMILES): C/C(=C\C(=O)Nc1ccccc1C(=O)O)c1ccc(OC(F)F)c(OC(F)F)c1
inhibition [2]: 100%

Structure (SMILES): O=C(O)c1ccccc1NC(=O)C1CC1c1ccc(OC(F)F)c(OC(F)F)c1 (centres undefined)
inhibition [1]: 90%
inhibition [2]: 70%

Structure (SMILES): O=C(/C=C/c1ccc2c(c1)OC(F)(F)O2)Nc1ccccc1C(=O)O
inhibition [1]: 0%

Structure (SMILES): O=S(=O)(/C=C/c1ccc(OC(F)F)c(OC(F)F)c1)Nc1ccccc1
inhibition [2]: 0%

Structure (SMILES): O=C(/C=C/c1ccc(OC(F)(F)C(F)F)cc1)Nc1ccccc1C(=O)O
inhibition [2]: 84%

bioavailability [4]: 125%
Tmax [5]: 1.75 h
AUC(0-inf) [6]: 652 µM·h
Cmax [7]: 118 µM
dose excreted [8]: 1.9%
half-life [9]: 3.3 h
AUC(0-inf) [10]: 110 µM·h
Vd [11]: 0.3 L/kg
dose excreted [12]: 2.4%
clearance [13]: 0.12 L/h/kg
half-life [14]: 3.1 h
Structure (SMILES): COc1ccc(/C=C/C(=O)Nc2ccccc2C(=O)O)cc1OC [TRANILAST]
Activity (Rattus norvegicus [3]): Active
inhibition [1]: 40%
inhibition [2]: 15%

Structure (SMILES): COc1cc(/C=C/C(=O)Nc2ccccc2C(=O)O)ccc1OC(F)F
inhibition [1]: 70%
inhibition [2]: 20%

Structure (SMILES): C/C(=C\c1ccc(OC(F)F)c(OC(F)F)c1)C(=O)Nc1ccccc1C(=O)O
inhibition [2]: 100%

Stability (Liver microsome): Stable
bioavailability [4]: 73%
Tmax (Rattus norvegicus [20]): 2.5 h
AUC (Rattus norvegicus [21]): 2691 µM·h
Cmax (Rattus norvegicus [22]): 200 µM
dose excreted [8]: 1.7%
t1/2(app) (Rattus norvegicus [23]): 5.4 h
AUC(0-inf) [10]: 894 µM·h
Vd [11]: 0.1 L/kg
dose excreted [12]: 3.3%
clearance [13]: 0.012 L/h/kg
half-life [14]: 7.8 h
Structure (SMILES): O=C(/C=C/c1ccc(OC(F)F)c(OC(F)F)c1)Nc1ccccc1C(=O)O
Activity (Rattus norvegicus [15]): Non-toxic
Activity (Rattus norvegicus [16]): Active
Activity (Rattus norvegicus [17]): Non-toxic
Activity (Rattus norvegicus [18]): Non-toxic
Activity (Rattus norvegicus [19]): Non-toxic
inhibition [1]: 100%
inhibition [2]: 60%

Structure (SMILES): O=C(/C=C/c1ccc(OC(F)(F)F)c(F)c1)Nc1ccccc1C(=O)O
inhibition [2]: 55%

Source: ChEMBL document CHEMBL3091327, “3',4'-Bis-difluoromethoxycinnamoylanthranilate (FT061): an orally-active antifibrotic agent that reduces albuminuria in a rat model of progressive diabetic nephropathy” (Bioorg Med Chem Lett, 2013)
